Assay results published in patent USRE48461E1, “Modulation of androgen receptor expression” (Ionis Pharmaceuticals, Inc., priority 2012, dated 2021).
Oligonucleotides are written 5' to 3', each unit as a sugar letter and its base; * is a phosphorothioate linkage, no mark a phosphodiester; rarer units and linkages stand in square brackets, end groups in braces. Plain capitals give the bases only. e = 2'-O-(2-methoxyethyl) (MOE); k = constrained ethyl (cEt); [5mC] = 5-methylcytosine; d = 2'-deoxy (DNA)

Assays:
AR mRNA [1] = test: Dose-dependent antisense inhibition of human AR in HuVEC cells (electroporation, qRT-PCR RTS3559, IC50); format: cell-based; details: HuVEC
In short: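 HuVEC cells dosed with antisense oligonucleotides by electroporation and treated approximately 16 hours. AR mRNA quantified by real-time qPCR with primer probe set RTS3559 and normalised to total RNA by RIBOGREEN; IC50 from dose-response.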

AR mRNA [2] = test: Antisense inhibition of human AR in HuVEC cells, single concentration (electroporation, qRT-PCR RTS3559); format: cell-based
In short: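 HuVEC cells electroporated with antisense oligonucleotides at a single concentration. AR mRNA quantified by qRT-PCR using human primer-probe set RTS3559 and normalised to total RNA content by RIBOGREEN.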

[3] = Table 32, electroporation, approximately 16 hours
[4] = Table 19, 500 nM oligonucleotide, electroporation, approximately 24 hours, relative to untreated control
[5] = Table 31, electroporation, approximately 16 hours
[6] = Table 30, electroporation, approximately 16 hours
[7] = Table 34, electroporation, approximately 16 hours
[8] = Table 22, 500 nM oligonucleotide, electroporation, approximately 24 hours, relative to untreated control
[9] = 500 nM ASO, electroporation, ~24 h, Table 1
[10] = Table 36, electroporation, approximately 16 hours
[11] = Table 24, 1,000 nM oligonucleotide, electroporation, approximately 24 hours, relative to untreated control
[12] = Table 35, electroporation, approximately 16 hours
[13] = Table 29, electroporation, approximately 16 hours

583797 (antisense kT*k[5mC]*kG*dG*dA*dT*dA*d[5mC]*dT*dG*d[5mC]*dT*dT*k[5mC]*k[5mC]*kT) [compound 583797]
percent inhibition of AR, 46.9 nM (AR mRNA [1]; [3]): 21% | percent inhibition of AR, 187.5 nM (AR mRNA [1]; [3]): 50% | percent inhibition of AR, 750.0 nM (AR mRNA [1]; [3]): 74% | percent inhibition of AR, 3000.0 nM (AR mRNA [1]; [3]): 82% | IC50 (AR mRNA [1]; [3]): 0.22 µM | % inhibition (AR mRNA [2]; [4]): 35%

583747 (antisense kG*k[5mC]*kT*dG*d[5mC]*dG*d[5mC]*dT*d[5mC]*dG*d[5mC]*dG*dG*k[5mC]*k[5mC]*kT) [compound 583747]
percent inhibition of AR, 46.9 nM (AR mRNA [1]; [5]): 13% | percent inhibition of AR, 187.5 nM (AR mRNA [1]; [5]): 38% | percent inhibition of AR, 750.0 nM (AR mRNA [1]; [5]): 50% | percent inhibition of AR, 3000.0 nM (AR mRNA [1]; [5]): 69% | IC50 (AR mRNA [1]; [5]): 0.64 µM | % inhibition (AR mRNA [2]; 500 nM ASO, ~24 h, Table 18): 35%

583738 (antisense kG*kT*kT*d[5mC]*dT*dG*dG*dA*dT*d[5mC]*dA*d[5mC]*dT*kT*k[5mC]*kG) [compound 583738]
percent inhibition of AR, 46.9 nM (AR mRNA [1]; [6]): 16% | percent inhibition of AR, 187.5 nM (AR mRNA [1]; [6]): 40% | percent inhibition of AR, 750.0 nM (AR mRNA [1]; [6]): 56% | percent inhibition of AR, 3000.0 nM (AR mRNA [1]; [6]): 71% | IC50 (AR mRNA [1]; [6]): 0.51 µM | % inhibition (AR mRNA [2]; 500 nM ASO, ~24 h, Table 18): 36%

569215 (antisense kT*kG*kG*dT*dT*dG*dA*dT*dT*dT*dA*dA*kT*kG*kG*eT) [compound 569215]
percent inhibition of AR (AR mRNA [1]; 31.25 nM, ~16 h, Table 14): 12% | percent inhibition of AR (AR mRNA [1]; 62.5 nM, ~16 h, Table 14): 2% | percent inhibition of AR (AR mRNA [1]; 125.0 nM, ~16 h, Table 14): 26% | percent inhibition of AR (AR mRNA [1]; 500.0 nM, ~16 h, Table 14): 71% | percent inhibition of AR (AR mRNA [1]; 1000.0 nM, ~16 h, Table 14): 90% | IC50 (AR mRNA [1]; ~16 h, Table 14): 0.234 µM | % inhibition (AR mRNA [2]; 1,000 nM ASO, ~24 h, Table 13): 59%

583880 (kT*kT*kT*dG*dG*dT*dG*dT*dA*dA*d[5mC]*d[5mC]*dT*k[5mC]*k[5mC]*k[5mC]; antisense) [compound 583880]
percent inhibition of AR, 46.9 nM (AR mRNA [1]; [3]): 13% | percent inhibition of AR, 187.5 nM (AR mRNA [1]; [3]): 52% | percent inhibition of AR, 750.0 nM (AR mRNA [1]; [3]): 78% | percent inhibition of AR, 3000.0 nM (AR mRNA [1]; [3]): 92% | IC50 (AR mRNA [1]; [3]): 0.22 µM | % inhibition (AR mRNA [2]; Table 20, 500 nM oligonucleotide, electroporation, approximately 24 hours, relative to untreated control): 39%

583749 (antisense kA*kG*kG*dT*dG*d[5mC]*dT*dG*d[5mC]*dG*d[5mC]*dT*d[5mC]*kG*k[5mC]*kG) [compound 583749]
percent inhibition of AR, 46.9 nM (AR mRNA [1]; [3]): 34% | percent inhibition of AR, 187.5 nM (AR mRNA [1]; [3]): 40% | percent inhibition of AR, 750.0 nM (AR mRNA [1]; [3]): 75% | percent inhibition of AR, 3000.0 nM (AR mRNA [1]; [3]): 87% | IC50 (AR mRNA [1]; [3]): 0.17 µM | % inhibition (AR mRNA [2]; [4]): 36%

583990 (kA*k[5mC]*kA*d[5mC]*dA*dT*d[5mC]*dA*dG*dG*dT*dG*d[5mC]*kG*kG*kT; antisense) [compound 583990]
percent inhibition of AR, 46.9 nM (AR mRNA [1]; [7]): 0% | percent inhibition of AR, 187.5 nM (AR mRNA [1]; [7]): 9% | percent inhibition of AR, 750.0 nM (AR mRNA [1]; [7]): 33% | percent inhibition of AR, 3000.0 nM (AR mRNA [1]; [7]): 56% | IC50 (AR mRNA [1]; [7]): 1.92 µM | % inhibition (AR mRNA [2]; [8]): 30%

549362 (k[5mC]*k[5mC]*k[5mC]*dG*dA*dA*dG*d[5mC]*dT*dG*dT*dT*d[5mC]*k[5mC]*k[5mC]*k[5mC]; antisense) [compound 549362]
percent inhibition of AR (AR mRNA [1]; 55.6 nM, ~16 h, Table 3): 10% | percent inhibition of AR (AR mRNA [1]; 166.7 nM, ~16 h, Table 3): 23% | percent inhibition of AR (AR mRNA [1]; 500.0 nM, ~16 h, Table 3): 57% | percent inhibition of AR (AR mRNA [1]; 1500.0 nM, ~16 h, Table 3): 74% | IC50 (AR mRNA [1]; ~16 h, Table 3): 0.447 µM | % inhibition (AR mRNA [2]; [9]): 85%

584158 (kG*kG*kT*dT*dA*dA*d[5mC]*dT*dT*dT*d[5mC]*dT*d[5mC]*kT*kG*kA; antisense) [compound 584158]
percent inhibition of AR, 46.9 nM (AR mRNA [1]; [10]): 14% | percent inhibition of AR, 187.5 nM (AR mRNA [1]; [10]): 37% | percent inhibition of AR, 750.0 nM (AR mRNA [1]; [10]): 70% | percent inhibition of AR, 3000.0 nM (AR mRNA [1]; [10]): 89% | IC50 (AR mRNA [1]; [10]): 0.26 µM | % inhibition (AR mRNA [2]; [11]): 69%

584183 (kA*k[5mC]*kA*dG*dG*d[5mC]*dT*d[5mC]*dT*dG*dA*d[5mC]*dT*kA*kG*kG; antisense) [compound 584183]
percent inhibition of AR, 46.9 nM (AR mRNA [1]; [12]): 3% | percent inhibition of AR, 187.5 nM (AR mRNA [1]; [12]): 41% | percent inhibition of AR, 750.0 nM (AR mRNA [1]; [12]): 64% | percent inhibition of AR, 3000.0 nM (AR mRNA [1]; [12]): 87% | IC50 (AR mRNA [1]; [12]): 0.31 µM | % inhibition (AR mRNA [2]; [11]): 76%

549371 (kG*kT*kT*dG*dT*dA*dG*dT*dA*dG*dT*d[5mC]*dG*k[5mC]*kG*kA; antisense) [compound 549371]
percent inhibition of AR (AR mRNA [1]; 55.6 nM, ~16 h, Table 3): 30% | percent inhibition of AR (AR mRNA [1]; 166.7 nM, ~16 h, Table 3): 52% | percent inhibition of AR (AR mRNA [1]; 500.0 nM, ~16 h, Table 3): 83% | percent inhibition of AR (AR mRNA [1]; 1500.0 nM, ~16 h, Table 3): 88% | IC50 (AR mRNA [1]; ~16 h, Table 3): 0.148 µM | % inhibition (AR mRNA [2]; [9]): 93%

583693 (antisense k[5mC]*kT*kG*dT*dG*dA*dT*dG*dA*dT*dG*d[5mC]*dG*kG*kT*kA) [compound 583693]
percent inhibition of AR, 46.9 nM (AR mRNA [1]; [5]): 12% | percent inhibition of AR, 187.5 nM (AR mRNA [1]; [5]): 39% | percent inhibition of AR, 750.0 nM (AR mRNA [1]; [5]): 64% | percent inhibition of AR, 3000.0 nM (AR mRNA [1]; [5]): 80% | IC50 (AR mRNA [1]; [5]): 0.38 µM | % inhibition (AR mRNA [2]; 500 nM ASO, ~24 h, Table 18): 36%

583687 (antisense kG*kG*kT*dA*dG*dT*d[5mC]*dG*d[5mC]*dT*dG*d[5mC]*dA*kG*k[5mC]*kT) [compound 583687]
percent inhibition of AR, 46.9 nM (AR mRNA [1]; [6]): 34% | percent inhibition of AR, 187.5 nM (AR mRNA [1]; [6]): 67% | percent inhibition of AR, 750.0 nM (AR mRNA [1]; [6]): 83% | percent inhibition of AR, 3000.0 nM (AR mRNA [1]; [6]): 81% | IC50 (AR mRNA [1]; [6]): 0.08 µM | % inhibition (AR mRNA [2]; 500 nM ASO, ~24 h, Table 18): 41%

549347 (k[5mC]*kT*kT*d[5mC]*dG*d[5mC]*dG*d[5mC]*dA*d[5mC]*dG*d[5mC]*dT*k[5mC]*kT*kG; antisense) [compound 549347]
percent inhibition of AR (AR mRNA [1]; 55.6 nM, ~16 h, Table 4): 15% | percent inhibition of AR (AR mRNA [1]; 166.7 nM, ~16 h, Table 4): 37% | percent inhibition of AR (AR mRNA [1]; 500.0 nM, ~16 h, Table 4): 62% | percent inhibition of AR (AR mRNA [1]; 1500.0 nM, ~16 h, Table 4): 71% | IC50 (AR mRNA [1]; ~16 h, Table 4): 0.357 µM | % inhibition (AR mRNA [2]; [9]): 84%

583821 (k[5mC]*kA*kG*dA*dA*dA*dT*dG*dG*dT*d[5mC]*dG*dA*kA*kG*kT) [compound 583821]
percent inhibition of AR, 46.9 nM (AR mRNA [1]; [5]): 11% | percent inhibition of AR, 187.5 nM (AR mRNA [1]; [5]): 35% | percent inhibition of AR, 750.0 nM (AR mRNA [1]; [5]): 61% | percent inhibition of AR, 3000.0 nM (AR mRNA [1]; [5]): 77% | IC50 (AR mRNA [1]; [5]): 0.46 µM | % inhibition (AR mRNA [2]; [4]): 42%

584044 (k[5mC]*k[5mC]*k[5mC]*dT*dT*d[5mC]*dA*dG*d[5mC]*dG*dG*d[5mC]*dT*k[5mC]*kT*kT; antisense) [compound 584044]
percent inhibition of AR, 46.9 nM (AR mRNA [1]; [7]): 23% | percent inhibition of AR, 187.5 nM (AR mRNA [1]; [7]): 30% | percent inhibition of AR, 750.0 nM (AR mRNA [1]; [7]): 51% | percent inhibition of AR, 3000.0 nM (AR mRNA [1]; [7]): 78% | IC50 (AR mRNA [1]; [7]): 0.44 µM | % inhibition (AR mRNA [2]; [8]): 29%

583567 (antisense kG*k[5mC]*kA*d[5mC]*dT*dT*dT*d[5mC]*d[5mC]*dT*dT*dG*d[5mC]*kT*kT*k[5mC]) [compound 583567]
percent inhibition of AR, 46.9 nM (AR mRNA [1]; [13]): 17% | percent inhibition of AR, 187.5 nM (AR mRNA [1]; [13]): 34% | percent inhibition of AR, 750.0 nM (AR mRNA [1]; [13]): 60% | percent inhibition of AR, 3000.0 nM (AR mRNA [1]; [13]): 79% | IC50 (AR mRNA [1]; [13]): 0.43 µM | % inhibition (AR mRNA [2]; 500 nM ASO, ~24 h, Table 16): 52%
